Where “and” joins values, the source holds several entries; their conditions need not be identical. Identical values can stand only once.
System: 186277-243-T-J2-PDC complex spheroid viability
Experiment: Anticancer human tumor 186277-243-T-J2-PDC patient-derived colon adenocarcinoma cell line growth inhibition [GQUAD]
Settings: for viability, T/C: stronger effect = lower value
Source text: DNA G-quadruplex Stabilizer Agents in Combinations in Complex Spheroids
A high-throughput screen of multi-cell type tumor spheroids was designed to identify active combinations of DNA G-quadruplex stabilizer agents and targeted small molecules. Complex spheroids include a stromal component modeled by human endothelial cells (HUVEC) and fibroblasts modeled by human mesenchymal stem cells (MSCs). The concentration ranges selected for each drug and investigational agent were based upon clinically achievable concentrations if the clinical Cmax of the agent was known.
Compounds. The drugs and investigational agents: pidnarulex (CX-5461; NSC782164), APTO-253 (NSC789042), BRACO-19 (NSC847499), peposertib (NSC802822), ceralasertib (NSC780249), elimusertib (NSC800525), camonsertib (NSC841442), AZD-1390 (NSC803789), olaparib (NSC753686), talazoparib (NSC767125), ART-558 (NSC835418), sotorasib (NSC818433), MRTX-1133 (NSC836407), SN-38 (NSC673596), topotecan (NSC609699), etoposide (NSC141540), doxorubicin (NSC123127), gemcitabine (NSC613327), 5-fluorouracil (NSC19893), paclitaxel (NSC125973), vemurafenib (NSC761431), panobinostat (NSC761190), R-306465 (JNJ-16241199; NSC773264), adavosertib (NSC754352), TP-3654 (NSC805149), carboplatin (NSC241240), KSQ-4279 (NSC840948), and staurosporine (NSC755774) were obtained from the National Cancer Institute (NCI) Developmental Therapeutics Program Chemical Repository (34). The FDA-approved anticancer drug set is available from the NCI Developmental Therapeutics Program. […] The stock solutions were prepared in dimethyl sulfoxide (DMSO, Sigma-Aldrich, St. Louis, MO, cat. D2650) at 800-fold the tested concentration and stored at -70 degrees C prior to their use. All drugs and investigational agents were tested over a range starting from a high concentration at or near the clinical Cmax and decreasing in half-log increments. If the clinical Cmax for an agent had not been determined, the highest concentration tested was 10 microM.
2.3 Cell Culture. All cells were maintained in an incubator at 37 degrees C and 5% CO2 with 95% humidity. The PDC lines were cultured according to standard operating procedures established by the NCI PDMR. All PDCs were thawed and cultured in Matrigel-coated flasks prepared with a working solution of 1X Ham's F-12 nutrient mix, without supplementation (Invitrogen, cat. 11765054), 100 U/mL penicillin-streptomycin (Invitrogen, cat. 15140122), and 2.5% Matrigel (Corning Inc., cat. 354248) for the first three passages. The 857933-349-R-J2-PDC line was cultured in 6C/Colon 1B media, which includes advanced DMEM/F-12 (Thermo Fisher Scientific, cat. 12634028), 10 mM HEPES (Thermo Fisher Scientific, cat. 15630080), 1X GlutaMAX supplement (Thermo Fisher Scientific, cat. 35050061), 0.1 mg/mL primocin (InvivoGen, cat. ant-pm-2), 10% defined fetal bovine serum, heat inactivated (HyClone Laboratories Inc., cat. SH30070.03HI), 50% L-WRN conditioned media (ATCC, cat. CRL-3276), 1.25 mM N-Acetyl-L-cysteine (Sigma-Aldrich, cat. A9165), 10 mM nicotinamide (Sigma-Aldrich, cat. N0636), 1X B-27 supplement (Thermo Fisher Scientific, cat. 17504044), 1X N-2 supplement (Thermo Fisher Scientific, cat. 17502048), 10 microM Y-27632 dihydrochloride (Tocris Bioscience, cat. 1254), and 50 ng/mL human EGF recombinant protein (Thermo Fisher Scientific, cat. PHG0311). The 485176-168-R4-J1-PDC line was cultured in Panc media, which includes all 6C/Colon 1B media components plus 100 ng/mL human FGF-10 (Thermo Fisher Scientific, cat. 100-26), 500 nM SB-431542 (Selleckchem, cat. S1067), and gastrin (Tocris, cat. 3006).
[…]

[1] = curve of first compound, second compound 0.0316 µM
[2] = curve of first compound, second compound 0.1 µM
[3] = curve of first compound, second compound 0.316 µM
[4] = curve of first compound, second compound 1 µM
[5] = curve of first compound, second compound 3.16 µM
[6] = curve of first compound, second compound 10 µM
[7] = second compound 0.0316 µM, first compound 0.0316 µM
[8] = second compound 0.0316 µM, first compound 0.316 µM
[9] = second compound 0.1 µM, first compound 0.0316 µM
[10] = second compound 0.1 µM, first compound 0.316 µM
[11] = second compound 0.316 µM, first compound 0.0316 µM
[12] = second compound 0.316 µM, first compound 0.316 µM
[13] = second compound 1 µM, first compound 0.0316 µM
[14] = second compound 1 µM, first compound 0.316 µM
[15] = second compound 3.16 µM, first compound 0.0316 µM
[16] = second compound 3.16 µM, first compound 0.316 µM
[17] = second compound 10 µM, first compound 0.0316 µM
[18] = second compound 10 µM, first compound 0.316 µM
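Also: spheroids exposed to drugs for 7 days.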
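For viability, T/C in this document: 100% = DMSO vehicle control viability.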

Q: With `Cc1[nH]c2ccccc2c1CCNCc1ccc(/C=C/C(=O)NO)cc1` + Cc1[nH]c2ccc(F)cc2c1-c1nc2c3cccnc3c3ncccc3c2[nH]1 as the molecule, how does the IC50 [1] read?
A: 0.0413 µM

Q: What about the IC50 [2] of the same molecule?
A: 0.0442 µM

Q: What about the IC50 [3] of the same molecule?
A: 0.0471 µM

Q: What about the IC50 [4] of the same molecule?
A: 0.0418 µM

Q: And the IC50 [5]?
A: 0.0404 µM

Q: And the IC50 [6]?
A: 0.0475 µM

Q: And the viability, T/C (second compound 0.0316 µM, first compound 0.000999 µM)?
A: 110%

Q: What about the viability, T/C (second compound 0.0316 µM, first compound 0.00316 µM) of the same molecule?
A: 108%

Q: What about the viability, T/C (second compound 0.0316 µM, first compound 0.00999 µM) of the same molecule?
A: 104%

Q: And the viability, T/C [7]?
A: 62.1%

Q: What about the viability, T/C (second compound 0.0316 µM, first compound 0.0999 µM) of the same molecule?
A: 9.83%

Q: And the viability, T/C [8]?
A: 0.44%

Q: What about the viability, T/C (second compound 0.1 µM, first compound 0.000999 µM) of the same molecule?
A: 115%

Q: And the viability, T/C (second compound 0.1 µM, first compound 0.00316 µM)?
A: 105%

Q: What about the viability, T/C (second compound 0.1 µM, first compound 0.00999 µM) of the same molecule?
A: 90.7%

Q: And the viability, T/C [9]?
A: 69.8%

Q: What about the viability, T/C (second compound 0.1 µM, first compound 0.0999 µM) of the same molecule?
A: 10.4%

Q: What about the viability, T/C [10] of the same molecule?
A: 0.56%

Q: What about the viability, T/C (second compound 0.316 µM, first compound 0.000999 µM) of the same molecule?
A: 93.3%

Q: What about the viability, T/C (second compound 0.316 µM, first compound 0.00316 µM) of the same molecule?
A: 101%

Q: What about the viability, T/C (second compound 0.316 µM, first compound 0.00999 µM) of the same molecule?
A: 97%

Q: What about the viability, T/C [11] of the same molecule?
A: 71.2%

Q: And the viability, T/C (second compound 0.316 µM, first compound 0.0999 µM)?
A: 9.88%

Q: What about the viability, T/C [12] of the same molecule?
A: 1.7%

Q: And the viability, T/C (second compound 1 µM, first compound 0.000999 µM)?
A: 90.5%

Q: What about the viability, T/C (second compound 1 µM, first compound 0.00316 µM) of the same molecule?
A: 107%

Q: What about the viability, T/C (second compound 1 µM, first compound 0.00999 µM) of the same molecule?
A: 104%

Q: And the viability, T/C [13]?
A: 62.8%

Q: And the viability, T/C (second compound 1 µM, first compound 0.0999 µM)?
A: 9.69%

Q: What about the viability, T/C [14] of the same molecule?
A: 0.96%

Q: And the viability, T/C (second compound 3.16 µM, first compound 0.000999 µM)?
A: 101%

Q: What about the viability, T/C (second compound 3.16 µM, first compound 0.00316 µM) of the same molecule?
A: 111%

Q: What about the viability, T/C (second compound 3.16 µM, first compound 0.00999 µM) of the same molecule?
A: 100%

Q: And the viability, T/C [15]?
A: 61.1%

Q: And the viability, T/C (second compound 3.16 µM, first compound 0.0999 µM)?
A: 9%

Q: What about the viability, T/C [16] of the same molecule?
A: 0.47%

Q: What about the viability, T/C (second compound 10 µM, first compound 0.000999 µM) of the same molecule?
A: 95%

Q: And the viability, T/C (second compound 10 µM, first compound 0.00316 µM)?
A: 98.5%

Q: What about the viability, T/C (second compound 10 µM, first compound 0.00999 µM) of the same molecule?
A: 99.9%

Q: And the viability, T/C [17]?
A: 71.1%

Q: And the viability, T/C (second compound 10 µM, first compound 0.0999 µM)?
A: 11.2%

Q: What about the viability, T/C [18] of the same molecule?
A: 1.07%

Q: How did the viability, T/C (compound 0.0316 µM) turn out when `CC1COCCN1c1cc(-c2ccnn2C)c2ccnc(-c3ccn[nH]3)c2n1` (stereo unspecified) was run?
A: 81.1% and 73.3% and 66.4%

Q: What about the viability, T/C (compound 0.1 µM) of the same molecule?
A: 12.5% and 11.9% and 12.3%

Q: And the viability, T/C (compound 0.316 µM)?
A: 7.41% and 7.05% and 7.85%

Q: What about the viability, T/C (compound 1 µM) of the same molecule?
A: 5.96% and 5.12% and 5.67%

Q: And the viability, T/C (compound 3.16 µM)?
A: 5.8% and 4.75% and 4.94%

Q: And the viability, T/C (compound 10 µM)?
A: 7.05% and 4.45% and 5.66%

Q: What about the IC50 (curve of compound) of the same molecule?
A: 0.0533 µM and 0.0489 µM and 0.0447 µM

Q: For `COc1cc(C2c3cc4c(cc3C(OC3OC5COC(C)OC5C(O)C3O)C3COC(=O)C23)OCO4)cc(OC)c1O` (stereo unspecified) + Cc1[nH]c2ccc(F)cc2c1-c1nc2c3cccnc3c3ncccc3c2[nH]1, which IC50 [1] is on record?
A: 3.72 µM

Q: And the IC50 [2]?
A: 2.42 µM

Q: What about the IC50 [3] of the same molecule?
A: 3.48 µM

Q: And the IC50 [4]?
A: 3.34 µM

Q: What about the IC50 [5] of the same molecule?
A: 2.58 µM

Q: What about the IC50 [6] of the same molecule?
A: 2.76 µM

Q: And the viability, T/C [7]?
A: 104%

Q: What about the viability, T/C (second compound 0.0316 µM, first compound 0.1 µM) of the same molecule?
A: 101%

Q: And the viability, T/C [8]?
A: 101%

Q: And the viability, T/C (second compound 0.0316 µM, first compound 1 µM)?
A: 62.2%

Q: What about the viability, T/C (second compound 0.0316 µM, first compound 3.16 µM) of the same molecule?
A: 61.3%

Q: What about the viability, T/C (second compound 0.0316 µM, first compound 10 µM) of the same molecule?
A: 25%

Q: And the viability, T/C [9]?
A: 92.1%

Q: And the viability, T/C (second compound 0.1 µM, first compound 0.1 µM)?
A: 92.4%

Q: And the viability, T/C [10]?
A: 76.8%

Q: And the viability, T/C (second compound 0.1 µM, first compound 1 µM)?
A: 62%

Q: What about the viability, T/C (second compound 0.1 µM, first compound 3.16 µM) of the same molecule?
A: 47.9%

Q: And the viability, T/C (second compound 0.1 µM, first compound 10 µM)?
A: 27.2%

Q: What about the viability, T/C [11] of the same molecule?
A: 94.6%

Q: And the viability, T/C (second compound 0.316 µM, first compound 0.1 µM)?
A: 90.2%

Q: And the viability, T/C [12]?
A: 83.4%

Q: What about the viability, T/C (second compound 0.316 µM, first compound 1 µM) of the same molecule?
A: 69.3%

Q: What about the viability, T/C (second compound 0.316 µM, first compound 3.16 µM) of the same molecule?
A: 52.9%

Q: What about the viability, T/C (second compound 0.316 µM, first compound 10 µM) of the same molecule?
A: 26.2%

Q: And the viability, T/C [13]?
A: 104%

Q: And the viability, T/C (second compound 1 µM, first compound 0.1 µM)?
A: 87.1%

Q: And the viability, T/C [14]?
A: 85.6%

Q: What about the viability, T/C (second compound 1 µM, first compound 1 µM) of the same molecule?
A: 66.9%

Q: What about the viability, T/C (second compound 1 µM, first compound 3.16 µM) of the same molecule?
A: 53.5%

Q: And the viability, T/C (second compound 1 µM, first compound 10 µM)?
A: 27.4%

Q: What about the viability, T/C [15] of the same molecule?
A: 96.6%

Q: And the viability, T/C (second compound 3.16 µM, first compound 0.1 µM)?
A: 101%

Q: And the viability, T/C [16]?
A: 110%

Q: What about the viability, T/C (second compound 3.16 µM, first compound 1 µM) of the same molecule?
A: 69%

Q: And the viability, T/C (second compound 3.16 µM, first compound 3.16 µM)?
A: 49.8%

Q: What about the viability, T/C (second compound 3.16 µM, first compound 10 µM) of the same molecule?
A: 25.5%

Q: And the viability, T/C [17]?
A: 103%

Q: What about the viability, T/C (second compound 10 µM, first compound 0.1 µM) of the same molecule?
A: 98%

Q: What about the viability, T/C [18] of the same molecule?
A: 94.1%

Q: And the viability, T/C (second compound 10 µM, first compound 1 µM)?
A: 70.6%

Q: What about the viability, T/C (second compound 10 µM, first compound 3.16 µM) of the same molecule?
A: 48.1%

Q: And the viability, T/C (second compound 10 µM, first compound 10 µM)?
A: 30.5%

Reference: PubChem BioAssay AID2060512 (Molecular Pharmacology Branch, DTP, NCI, 2025)
